The test system of the test is LPS stimulated human PBMCs. The experiment in a line: In vitro potency of steroid payloads in LPS stimulated human PBMCs (IL-1β, IL-6 ELISA). The class given is cell-based. A general note: An ELISA detects its analyte on a solid surface through an enzyme-linked reagent.
Where [1] appears, read: Experiment 2, 1000-1 nM, 1 ng/mL LPS, 24 hr, n=1 donor.

The results in this text go back to US20230310634A1, “ANTI-HUMAN VISTA ANTIBODIES AND USE THEREOF” (IMMUNEXT, INC., priority 2020, published 2023).

In the case of `C[C@]12C=CC(=O)C=C1CC[C@@H]1[C@@H]2[C@@H](O)C[C@@]2(C)[C@H]1C[C@H]1O[C@H](c3cnc(Cc4cccc(N)c4)s3)O[C@]12C(=O)CO` [INX-SM-56, (6aR,6bS,7S, 8aS,8bS,10S,11aR,12aS,12bS)-10-(2-(3-aminobenzyl)thiazol-5-yl)-7-hydroxy-8b-(2-hydroxyacetyl)-6a,8a-dimethyl-1,2,6a,6b,7,8,8a,8b, 11a,12,12a,12b-dodecahydro-4H-naphtho[2′,1′:4,5]indeno[1,2-d][1,3]dioxol-4-one], the “steroid potency as free payloads in LPS-activated human PBMCS (conclusions)” value (shortened to “steroid potency as free payloads”) is recorded as “did not show potency”. Moreover, under setting [1], the IL-1β production result is reported as “did not show inhibition”.

As to `C[C@]12C=CC(=O)C=C1CC[C@@H]1[C@@H]2[C@@H](O)C[C@@]2(C)[C@H]1C[C@H]1O[C@@H](C34CC(Cc5cccc(N)c5)(C3)C4)O[C@]12C(=O)CO` [INX-SM-4, (6aR,6bS,7S,8aS,8bS,10R,11aR,12aS,12bS)-10-(3-(3-aminobenzyl)bicyclo[1.1.1]pentan-1-yl)-7-hydroxy-8b-(2-hydroxyacetyl)-6a,8a-dimethyl-1,2,6a,6b,7,8,8a,8b,11a,12,12a,12b-dodecahydro-4H-naphtho[2′,1′:4,5]indeno[1,2-d][1,3]dioxol-4-one], the “steroid potency as free payloads” value is “varying degrees of dose dependent steroid potency”. Also, the “IL-1β and IL-6 production” value (Experiment 1, 1000-1 nM, 1 ng/mL LPS, 24 hr, n=1 donor) was “inhibit both IL-1β and IL-6 production”. Also, the IL-1β production result under setting [1] is “show inhibition in IL-1β production”.

Take `C[C@]12C=CC(=O)C=C1[C@@H](F)C[C@H]1[C@@H]3C[C@H]4O[C@@H](c5ccc(CC67CC(N)(C6)C7)cc5)O[C@@]4(C(=O)CO)[C@@]3(C)C[C@H](O)[C@@]12F` [INX-SM-24, (2S,6aS,6bR,7S,8aS,8bS,10R,11aR,12aS,12bS)-10-(4-((3-aminobicyclo[1.1.1]pentan-1-yl)methyl)phenyl)-2,6b-difluoro-7-hydroxy-8b-(2-hydroxyacetyl)-6a,8a-dimethyl-1,2,6a,6b,7,8,8a,8b,11a,12,12a,12b-dodecahydro-4H-naphtho[2′,1′:4,5]indeno[1,2-d][1,3]dioxol-4-one]: the “steroid potency as free payloads” value is “varying degrees of dose dependent steroid potency”. In addition, for the setting “Experiment 6, 1000-0.16 nM, compared with INX-SM-3”, the “impact of halogenation of the steroid ring on potency” value is reported as “increased potency over the non-fluorinated INX-SM-3”.

Consider `C[C@]12C=CC(=O)C=C1CC[C@@H]1[C@@H]2[C@@H](O)C[C@@]2(C)[C@H]1C[C@H]1O[C@@H](c3cnc(Cc4cccc(N)c4)s3)O[C@]12C(=O)CO` [INX-SM-6, (6aR,6bS,7S, 8aS,8bS,10R,11aR,12aS,12bS)-10-(2-(3-aminobenzyl)thiazol-5-yl)-7-hydroxy-8b-(2-hydroxyacetyl)-6a,8a-dimethyl-1,2,6a,6b,7,8,8a,8b, 11a,12,12a,12b-dodecahydro-4H-naphtho[2′,1′:4,5]indeno[1,2-d][1,3]dioxol-4-one], for which the “steroid potency as free payloads” value is given as “varying degrees of dose dependent steroid potency”. For the same compound, the IL-1β production result under setting [1] is “show inhibition in IL-1β production”.

Regarding `C[C@]12C=CC(=O)C=C1CC[C@@H]1[C@@H]2[C@@H](O)C[C@@]2(C)[C@H]1C[C@H]1O[C@@H](c3ccc(Cc4ncc(N)s4)cc3)O[C@]12C(=O)CO` [INX-SM-7, (6aR,6bS,7S,8aS,8bS,10R,11aR,12aS,12bS)-10-(4-((5-aminothiazol-2-yl)methyl)phenyl)-7-hydroxy-8b-(2-hydroxyacetyl)-6a,8a-dimethyl-1,2,6a,6b,7,8,8a,8b,11a,12,12a,12b-dodecahydro-4H-naphtho[2′,1′:4,5]indeno[1,2-d][1,3]dioxol-4-one], the “steroid potency as free payloads” value is “varying degrees of dose dependent steroid potency”. Further, under “Experiment 6, 1000-0.16 nM, 1 ng/mL LPS, 24 hr, n=1”, the IL-1β production result is listed as “dose-dependent inhibition”.
